Assay [1] relates to Ovariectomised adult female Sprague Dawley rats. As to the kind of experiment: Female rat sexual receptivity test (lordosis quotient, LQ). The format is in vivo. Particulars: for lordosis quotient (LQ): quinelorane 6.25µg/kg s.c. 90min. As for the experimental part: (§1) Ovariectomised adult female Sprague Dawley rats (180-200g, from Charles River) were housed in groups of 6 in a reversed lighting system of 12h light:dark (lights off 7.00-19.00h). Two weeks after ovariectomy they were used for sexual activity tests. The experiments started at least 5h into the dark period.
It was administered intraperitoneally (i.p.) at a dose of 10mg/kg, in a dosing volume of 1ml/kg. […] Forty eight hours before testing, ovariectomised female rats (as described above), were primed with 5µg oestradiol benzoate dissolved in corn oil and injected subcutaneously. […] The females were placed with a series of vigorous male rats and subjected to 10 mounts.
The lordotic response of the animal was recorded and expressed as a percentage of the mounts (i.e. lordosis quotient, LQ), as previously described. Animals showing LQ<20 were considered non-receptive and were included in the study. Each rat was tested prior to administration of the compound and then tested similarly post-injection.
The above compound was dissolved in PEG200 vehicle and administered orally. […] Both compounds were administered in a 1ml/kg volume.
Forty eight hours before tests, the animals were primed with 5µg oestradiol benzoate (Sigma Chemical. Co. Ltd., UK) dissolved in corn oil and injected subcutaneously. The females were placed with a series of vigorous male rats and subjected to 10 mounts. The lordotic response of the animal was recorded and expressed as a percentage of the mounts (i.e. lordosis quotient, LQ). […] Animals showing higher LQ were not included in the study. Each rat was tested prior to administration of the compound and then tested similarly at 1h and 90min post-injection of the above compound or quinelorane respectively.

Assay [2] shares this test system. The assay is described as follows: Female rat sexual proceptivity test (time investigating male vs female stimulus). Format: in vivo.
Assay [3] concerns Sprague Dawley male rats. As to the kind of experiment: Sexual behaviour of normal (sexually vigorous) male rats. The format is in vivo, rat. Particulars: Compound (1) 15mg/kg or Fluoxetine 20mg/kg i.p. 1h before tests, vs vehicle. Here is the method: Sprague Dawley male rats (Charles River, UK) were kept, 4 rats per cage, in a reversed lighting regime (12:12 hours, lights off at 5.00 h), with free access to food and water. The rats were pre-selected by being presented with a receptive female at 4 days intervals, i.e. every third day (having 2 clear days between presentations) until completing 6-7 days of baseline determination. The animals showing consistently vigorous behaviour (ejaculatory latencies <300s) were chosen for further experiments (n=24). Animals were randomised into three groups. All animals received all three treatments following a latin-square design. Treatments were administered once a week, with a baseline test in between treatments (4 days intervals between baseline and test day). […] All treatments were administered i.p. in a 1ml/kg volume, 1h before tests.
For all the sexual behaviour tests, the males were placed in an observation arena (50-60 cm diameter), starting 5 hours into the dark cycle and observed under red illumination. Three to 4 minutes after placing the male in the arena, a receptive female (ovariectomised, bearing a 7 mm Silastic implant of oestradiol benzoate) was introduced to the arena and the following parameters noted: Mount Latency: time (in seconds) taken between introduction of female and first mount. A maximum time of 15 minutes (900 seconds) was allowed, and the test terminated if no mounts were recorded within that time (Figure 11), Intromission Latency: time (in seconds) taken between introduction of female and first intromission (Figure 12), Number of Mounts: to reach ejaculation. When ejaculation was not reached, the number of mounts was not analyzed, Number of Intromissions: to reach ejaculation. When ejaculation was not reached, the number of intromissions was not analyzed (Figure 13 is number of mounts + intromissions), Ejaculation Latency: time (in seconds) taken from first intromission to ejaculation. A maximum time of 30 minutes (1800 seconds) was given, and the test terminated if ejaculation was not achieved in that time (Figure 14), and Refractory Period: time (in seconds) taken from ejaculation to the first mount of the next series of sexual activity. In those animals reaching ejaculation the test was terminated at the end of the refractory period, as indicated by the first mount of the next sexual cycle (Figure 15).
A one-way ANOVA followed by Dunnett's t test was used to compare treated vs vehicle groups each day of testing, for all the sexual behaviour parameters.

For assay [4], the system named is Sprague Dawley male rats. As to the kind of experiment: Sexual behaviour of fluoxetine-induced sexually dysfunctional male rats. The format is in vivo, rat. To be noted: fluoxetine 20mg/kg i.p. 3 days (vs vehicle+vehicle). As for the experimental part:
Sprague Dawley male rats (Charles River, UK) were kept, 4 rats per cage, in a reversed lighting regime (12:12 hours, lights off at 5.00 h), with free access to food and water. The rats were pre-selected by being presented with a receptive female at 4 days intervals, i.e. every third day (having 2 clear days between presentations) until completing 6-7 trials of baseline determination. The animals showing consistently vigorous behaviour (ejaculatory latencies <300s) were chosen for further experiments. Animals were treated for 3 consecutive days with either vehicle (water) or fluoxetine (20mg/kg, i.p., in a 2ml/kg dosing volume). […] All treatments were administered i.p. in a 1ml/kg volume, 1h before tests.
For all the sexual behaviour tests, the males were placed in an observation arena (50-60 cm diameter), starting 5 hours into the dark cycle and observed under red illumination. Three to 4 minutes after placing the male in the arena, a receptive female (ovariectomised, bearing a 7 mm Silastic implant of oestradiol benzoate) was introduced to the arena and the following parameters noted: Mount Latency: time (in seconds) taken between introduction of female and first mount. A maximum time of 15 minutes (900 seconds) was allowed, and the test terminated if no mounts were recorded within that time (Figure 16), Ejaculation Latency: time (in seconds) taken from first intromission to ejaculation. A maximum time of 30 minutes (1800 seconds) was given, and the test terminated if ejaculation was not achieved in that time (Figure 17), Percentage of males achieving ejaculation within 30 minutes was calculated (Figure 18).
A one-way ANOVA followed by Dunnett's t test was used to compare the fluoxetine+vehicle group and other groups for mount and ejaculatory latencies. Percentage of animals ejaculating was analysed using a Chi-square test followed by Fisher's test. (*: P<0.05, **: P<0.01, ***: P<0.001; n=15-19).

Assay [5] has as its system Ovariectomised adult female Sprague Dawley rats. As to the kind of experiment: Female rat sexual proceptivity test (time investigating male vs female stimulus). Format: in vivo. As for the experimental part:
as §1
Tests were carried out in a circular arena of 90cm diameter, surrounded by a 30cm high wall. Two small cages with wire-mesh front (15x15cm) are fixed into the wall such that the front of the cage is «flush» with the wall and the 2 cages are opposite each other. They contained two stimuli animals: an intact sexually experienced male and a receptive female (ovariectomised, primed with 5µg oestradiol benzoate dissolved in corn oil and injected subcutaneously 48 hours before the test and with 0.5 mg of progesterone four hours before the test). Sexually naive test and control animals were used. Forty eight hours before the tests, both the test and control animals were primed with 5µg oestradiol benzoate. For animals used as positive controls, progesterone (0.5mg/0.1ml) was dissolved in corn oil and administered subcutaneously (s.c.), 4h before the test. Test and control animals were introduced one at a time for 10 minute periods into the arena. During the 10min test, the time that the test or positive control animal spent investigating each stimulus animal was noted. The arena was thoroughly cleaned between animals. The position of the male/female stimuli boxes was randomised between animals, in order to avoid place preference. The difference in the percentage of time spent investigating the male minus the female stimuli was calculated, out of the total time spent investigating stimuli animals. […]
Ovariectomised adult female Sprague Dawley rats (180-200g) were housed in groups of 5 in a reversed lighting system of 12h light:dark (lights off 5.00-17.00h). They were used for the experiments at least two weeks after ovariectomy. Forty eight hours before tests, the animals were primed with oestradiol benzoate (5µg/0.1ml in corn oil, s.c.). On day 1, progesterone (0.5mg/0.1ml, in corn oil, s.c.) was administered to one of the groups 4h before tests, as a positive control. […] The test lasted 10 minutes and was carried out as described before. The difference in the percentage of time spent investigating the male minus the female stimuli was calculated, out of the total time spent investigating stimuli animals. Animals were submitted to a test on day 1 and on day 15. […] On day 15 the test took place again, as described for day 1. […]
The source holds these as a separate data set.

Where [6] appears, read: Example 31, after vs before administration, Compound (2) oral 10-100mg/kg in PEG200, 1h.
Where [7] appears, read: day 4 Compound (1) 15mg/kg or yohimbine 2mg/kg i.p. 1h before tests (vs fluoxetine+vehicle).

`COc1ccc(C2(CNC(=O)[C@](C)(Cc3c[nH]c4ccccc34)Nc3nc(-c4ccc([N+](=O)[O-])cc4)co3)CCCCC2)nc1` [Example 9, (S)-3-(1H-Indol-3-yl)-N-[1-(5-methoxy-pyridin-2-yl)-cyclohexylmethyl]-2-methyl-2-[4-(4-nitro-phenyl)-oxazol-2-ylamino]-propionamide]: the “lordosis quotient (LQ)” value in assay [1] (setting [6]) is on record as “increased the LQ”. Also, in assay [1] (Rattus norvegicus, Example 31, single oral administration in PEG200, 1h after administration, P<0.01, read-out: MED (increase in LQ)), the minimal effective dose was determined as 100 mg/kg. Also, the “MED (increase in percentage of time spent investigating the male stimulus)” value was found to be 100 mg/kg in assay [2] (Example 29, oral, 30-100mg/kg in PEG 200 vehicle, 1h before test) and 10 mg/kg in assay [2] (Example 30, p.o., 3-30mg/kg in 0.5% methyl cellulose, 1h before tests). In addition, the “percentage of time spent investigating the male stimulus” value in assay [2] (Example 29, oral, dose-dependent 30-100mg/kg in PEG 200, 1h before test) is listed as “increased the percentage of time spent investigating the male stimulus”; in assay [2] (Example 30, p.o., dose-dependent 3-30mg/kg in 0.5% methyl cellulose) it was “increased the percentage of time spent investigating the male stimulus”. Further, in assay [2] (Example 30, methyl cellulose MED vs PEG200 MED), the “increase in potency compared to the oral results obtained in the PEG200 vehicle” value was 10 fold.

Consider `CNCCC(Oc1ccc(C(F)(F)F)cc1)c1ccccc1` (centres unmarked) [fluoxetine, reference compound], for which, in the assay on Sprague Dawley male rats [3], the Ejaculation latency entry is “also increased”, the Intromission latency result was “significantly increased”, the Mount latency entry was “significantly increased” and the Refractory period result is “also increased”. For the same molecule, in the assay with Sprague Dawley male rats [3], the “number of mounts and intromissions required to achieve ejaculation” value is on record as “No changes”. Further, in the assay on Sprague Dawley male rats [4] (setting [7]), the Ejaculation latency result is on record as “significantly increased” and the Mount latency entry is reported as “significantly increased”. In the assay on Sprague Dawley male rats [4] (within 30 minutes, day 4 Compound (1) 15mg/kg or yohimbine 2mg/kg i.p. (vs fluoxetine+vehicle)), the “percentage of animals ejaculating” value was “significantly lower”.

Regarding `CC(=O)[C@H]1CC[C@H]2[C@@H]3CCC4=CC(=O)CC[C@]4(C)[C@H]3CC[C@]12C` [progesterone, reference compound], in assay [5] (Example 3, Compound (1) 15mg/kg i.p. 1h before test, progesterone 0.5mg/0.1ml s.c. 4h before, vs vehicle, P<0.01), the “proceptivity, day 1” value is “stimulatory effect on proceptivity”. Moreover, in assay [5] (Example 5, progesterone 0.5mg/0.1ml s.c. 4h before test, compared to vehicle group), the “percentage of time spent investigating the male stimulus” value is given as “increased the percentage of time spent investigating the male stimulus”.

Consider `CCCN1CCC[C@@H]2Cc3nc(N)ncc3C[C@H]21` [quinelorane, reference compound], for which the “lordosis quotient (LQ)” value is “significantly (P<0.01) increased the LQ” in assay [1] (Example 2, after vs before administration (paired t test), Compound (1) 10mg/kg i.p. 1h) and “significantly (P<0.01) increased the LQ” in assay [1] (setting [6]).

On to neuromedin B [NMB, reference compound], for which the “proceptivity in progesterone-treated rats” value in assay [5] (Example 5, NMB 100ng i.c.v. 10min before tests, P<0.001 vs progesterone) is reported as “significantly reduced proceptivity”.

The values above are taken from patent EP1333824B1, “TREATMENT OF SEXUAL DYSFUNCTION WITH BOMBESIN RECEPTOR ANTAGONISTS” (Warner-Lambert Company LLC, priority 2000, dated 2002).
